Data published in patent publication US12202805B2, “Process for preparing (5S)-{[2-(4-carboxyphenyl)ethyl] |2-(2-{|3-chloro-4'-(trifluoromethyl)biphenyl-4-yl]methoxy}phenyl)ethyl]aminol-5,6,7,8-tetrahydroquinoline-2-carboxylic acid and its crystalline forms for use as pharmaceutically active compound” (Bayer Aktiengesellschaft, priority 2021, dated 2025).

Columns and labels:
[1] = tested on: thromboxane A2 challenged PAH-minipig; assay: Haemodynamics in the anesthetized thromboxane challenged minipig, inhaled nebulized solution (PAP, BP); assay type: in vivo, Göttingen Minipigs
Method: E-1 Haemodynamics in the Anesthetized Thromboxane Challenged Minipig
Lung Selectivity and Duration of Action
Healthy Göttingen Minipigs® Ellegaard (Ellegaard, Denmark) of both sexes and having a weight of 2-6 kg were used. The animals were sedated by i.m. administration of about 25 mg/kg ketamine and about 10 mg/kg azaperone. Anaesthesia was initiated by i.v. administration of about 2 mg/kg ketamine and about 0.3 mg/kg midazolam. Maintenance of anaesthesia was by i.v. administration of about 7.5-30 mg/kg/h ketamine and about 1-4 mg/kg/h midazolam (rate of infusion 1-4 ml/kg/h) and about 150 μg/kg/h pancuronium bromide (for example Pancuronium-Actavis). After intubation, the animals were ventilated by the ventilator at a constant respiratory volume (10-12 ml/kg, 35 breaths/min; Avea®, Viasys Healthcare, USA, or Engström Carestation, GE Healthcare, Freiburg, Germany) such that an end-tidal CO2 concentration of about 5% was achieved. Ventilation was performed with room air, enriched with about 40% oxygen (normoxia). For the measurement of the haemodynamic parameters such as pulmonary arterial pressure (PAP), blood pressure (BP) and heart rate (HR), catheters were inserted into the carotid artery to measure the blood pressure, and a Swan-Ganz® catheter was introduced in a flow-directed manner via the jugular vein into the pulmonary artery. The haemodynamic signals were recorded and evaluated by means of pressure transducers (Combitransducer, B. Braun, Melsungen, Germany)/amplifiers and Ponemah® as data acquisition software.
After the instruments have been placed into the animals, continuous infusion of a thromboxane A2 analog was initiated to increase the pulmonary arterial pressure. About 0.3-0.75 μg/kg/min of 9,11-didesoxy-9α,11α-epoxymethanoprostaglandine F2α (U-44069; Sigma, cat. no. D0400, or Cayman Chemical Company, cat. no. 16440), dissolved in physiological saline, were infused to achieve an increase of the mean pulmonary arterial pressure to values of over 25 mmHg. 30 minutes after the start of the infusion, a plateau was reached, and the experiment was started.
The test substances were administered as i.v. infusion or by inhalation. For the preparation of the solution for inhalation, the following procedure was adopted: For an animal having a weight of 4 kg, to prepare the stock solution (300 μg/kg), 1.2 mg of the test compound were weighed out and dissolved in a total volume of 3 ml (1% DMSO, 99% 0.2% strength citric acid solution, 1 n aqueous sodium hydroxide solution to adjust the pH to 8). The solution was then diluted to the concentration employed using 0.2% strength citric acid which had been adjusted to pH 8 beforehand with aqueous sodium hydroxide solution. In each test, 3 ml of the solution of test compound per 4 kg animal were nebulized in the inhalation arm of the respiratory circuit using the Aeroneb® Pro nebulizer system. The mean nebulization time was about 7 min from the start of the nebulization.
With respect to a prediction of the duration of action for human studies comparative example 11 was compared in the PAH minipig model after inhaled application to Ventavis® (=Iloprost, 10 μg/kg nominal dose), which we used as a clinical reference. […] Therefore, the duration of action is more than 6 times longer compared to Ventavis in this preclinical animal model.

[2] = Protein binding via Transil assay, human plasma; assay type: in vitro ADME
Method: Protein Binding of Comparative Example 11 and Comparative Example 1 was Analyzed Via Transil Assay, Described Below.
The distribution of a test substance between Transil® (phosphatidylcholine lipid bilayers immobilized on silica beads) and plasma is a characteristic feature of any pharmaceutical compound and is dependent on its extent of binding to plasma proteins. By comparing the distribution between Transil® and buffer with the distribution between Transil® and plasma of any species of interest, the unbound fraction in the plasma of the respective animal species can be calculated in vitro. The respective plasma and buffer concentrations were determined via a radioactivity analysis. A detailed description of the method and its validation was published by Schuhmacher et al. (2).

[3] = tested on: thromboxane and hypoxia challenged rats, pigs, and dogs; assay: Disease relevant animal models (thromboxane and hypoxia challenged), inhaled application, PAP; assay type: in vivo
[4] = tested on: chronic ovalbumin asthma mice model; assay: Chronic ovalbumin asthma mice model; settings: mouse, in vivo
[5] = Micronization in spiral jet mill: solid form (XRPD) and particle size distribution; assay type: physicochemical; settings: for PSD X10 / PSD X50 / PSD X90: dry measurement 4 bar
From the text: For inhalative drug products it is important to guarantee a homogeneous drug substance with defined particle size <5 μm to secure delivery to the deep lung compartments. This technical requirement can be afforded by micronization of the drug substance particles.
Generally no amorphization even partial nor form conversion should happen during the necessary micronization step.
The corresponding batches (examples 8a-8 d) were micronized using a 50 mm spiral jet mill and pressurized nitrogen with the following parameters (see table 16b).
The corresponding batches were micronized using a 100 mm spiral jet mill and pressurized nitrogen with the following parameters (see table 16c).
All measurements cited in the above tables were obtained by laser diffraction with dry dispersion using compressed air. Measuring in aqueous suspension with surfactants may lead to smaller particle sizes (×90 up to 1 μm smaller).

[6] = PTFE coated jet mill, 25° C., 4.5/4.0 bar, 4.5 g/min
[7] = VA jet mill 50 mm, 25° C., 4.5/4.0 bar, 4.5 g/min
[8] = VA jet mill (low stress conditions), −65° C., 4.5/3.0 bar, 10.6 g/min
[9] = VA jet mill, −65° C., 4.5/4.0 bar, 5.5 g/min
[10] = after micronization, 100 mm spiral jet mill, monohydrate I as starting material

## O=C(O)c1ccc(CCN(CCc2ccccc2OCc2ccc(-c3ccc(C(F)(F)F)cc3)cc2Cl)[C@H]2CCCc3nc(C(=O)O)ccc32)cc1 [comparative example 11, (5S)-5-{[2-(4-carboxyphenyl)ethyl][2-(2-{[3-chloro-4′-(trifluoromethyl)[biphenyl]-4-yl]methoxy}phenyl)ethyl]amino}-5,6,7,8-tetrahydroquinoline-2-carboxylic acid]
[1]; inhaled, all doses (10, 30, 100 μg/kg nominal dose), 240 min observation interval
  duration of dose dependent efficacy (PAP): ≥ 240 min
[1]; nebulized liquid formulations
  time of maximum effect after start inhalation: about 90 min
[1]; preclinical animal model
  duration of action, times longer compared to Ventavis: more than 6 times
[2]
  free fraction, times lower than comparative example 1: 2 times
[3]
  effect on elevated PAP: selectively decreased elevated PAP
[4]
  effect on airway hyper-responsiveness and inflammation: inhibitory effect on airway hyper-responsiveness and inflammation

## O=C(O)c1ccc(CCN(CCc2ccccc2OCc2ccc(-c3ccc(C(F)(F)F)cc3)cc2Cl)[C@H]2CCCc3nc(C(=O)O)ccc32)cc1 [example 2, (5S)—{[2-(4-Carboxyphenyl)ethyl][2-(2-{[3-chloro-4′-(trifluoromethyl)biphenyl-4-yl]methoxy}phenyl)-ethyl]amino}-5,6,7,8-tetrahydroquinoline-2-carboxylic acid as Monohydrate II]
[5]; [6]
  PSD X10: X10: 0.7 μm,
  PSD X50: X50: 1.9 μm,
  PSD X90: X90: 5.0 μm
[5]; [7]
  PSD X10: X10: 0.4 μm,
  PSD X50: X50: 1.7 μm,
  PSD X90: X90: 4.2 μm
[5]; [8]
  PSD X10: X10: 0.5 μm,
  PSD X50: X50: 2.3 μm,
  PSD X90: X90: 9.6 μm
[5]; [9]
  PSD X10: X10: 0.4 μm,
  PSD X50: X50: 1.8 μm,
  PSD X90: X90: 4.8 μm
[5]; batch of example 2
  XRPD form after micronization: monohydrate II with partial amorphization
[1]; nebulized solution, inhaled
  minimal effective nominal dose (5% reduction in PAP): 3 µg/kg
[2]; read-out: plasma fu (fraction unbound)
  fraction unbound: 0.000764

## O=C(O)c1ccc(CCN(CCc2ccccc2OCc2ccc(-c3ccc(C(F)(F)F)cc3)cc2Cl)[C@H]2CCCc3nc(C(=O)O)ccc32)cc1 [example 4, (5S)—{[2-(4-Carboxyphenyl)ethyl][2-(2-{[3-chloro-4′-(trifluoromethyl)biphenyl-4-yl]methoxy}phenyl)-ethyl]amino}-5,6,7,8-tetrahydroquinoline-2-carboxylic acid as Monohydrate I]
[5]; 100 mm spiral jet mill, pressurized nitrogen
  stability under micronization conditions: stable
[5]; [10]
  PSD X10: X10: 0.7 μm,
  PSD X50: X50: 2.1 μm,
  PSD X90: X90: 6.1 μm
